From patent US20180327375A1, “AROMATIC SURFACTANTS” (REGENTS OF THE UNIVERSITY OF MINNESOTA, priority 2015, published 2018)
Several values for one entry are separate records, joined by “and”; a condition that tells them apart may be missing. Equal values may be shown once. Where a name gives a salt, the structure may show the parent alone. Read-outs that look alike come from different tables or passages of the source.

How the values were obtained:
Format in all cases: physicochemical
[1] = Krafft point by conductivity vs temperature; conditions: 1.0 wt % surfactant in water (2.0 wt % for OFS-12-1/O)
Experimental: Krafft point or Krafft temperature is the minimum temperature at which surfactants form micelles. Below Krafft point, the surfactants precipitate out of solution and remain in the crystalline phase. FIG. 30 depicts the apparatus utilized for the measurement of Krafft points. A 1.0 wt % solution of surfactant in deionized water was prepared for all surfactants except in the case of OFS-12-1/O where a 2.0 wt % solution was used instead, since its CMC is roughly about 1.1 wt %. 50 mL of the prepared solution was poured into a beaker surrounded by a freezing mixture of ice and salt (sodium chloride) mounted on a laboratory hot plate with magnetic stirring. The Krafft point (TK) of the surfactants was measured by estimating the degree of counterion dissociation using a conductivity meter (COND 6+, Oakton/Eutech Instruments) immersed in the surfactant solution capable of measuring both, conductivity and temperature. The magnetic stirring speed was set to 650 rpm and the solution was first allowed to cool to 0° C. Upon attainment of this temperature, the solution was slowly heated and the conductivity was measured in every 0.5° C. increments until it reached a steady value. […] Visually, this corresponded to the surfactant solution transitioning from a turbid system due to the precipitated surfactant crystals below the Krafft point to a clear solution indicating the dissolution of surfactants and the formation of micelles in water.
For the OFS-Cocinic, n=8-18 surfactant, the conductivity vs temperature plot was erratic, which is attributed to the presence of 6 different surfactants in the mixture. The solution changed from turbid to clear at approximately 18.5° C. which was, therefore, reported as the Krafft point. Methyl Ester Sulfonate (MES), Sodium Lauryl Ether Sulfate (SLES), OFS-7 and all OFS-n-1/O surfactant solutions remained clear even at 0° C.; the Krafft point was thus reported as <0° C.

[2] = Hardness tolerance / hard water stability (surface tension and turbidity vs CaCl2 concentration); conditions: for Turbid conc.: onset of turbidity
Description: Precipitation of the anionic surfactant from hard water is an undesired process in detergency. The tendency of the anionic surfactants to precipitate is quantified by analyzing hardness tolerance. Hardness tolerance is the minimum concentration of counterion, such as, Ca^2+ and Mg^2+, precipitating with surfactant, resulting in deactivation of the surfactant performance (C. H. Rodriguez, L. H. Lowery, J. F. Scamehorn, J. H. Harwell, Kinetics of precipitation of surfactants. I. Anionic surfactants with calcium and with cationic surfactants. Journal of Surfactants and Detergents 4, 1-14 (2001); C. H. Rodriguez, C. Chintanasathien, J. F. Scamehorn, C. Saiwan, S. Chavadej, Precipitation in solutions containing mixtures of synthetic anionic surfactant and soap. I. Effect of sodium octanoate on hardness tolerance of sodium dodecyl sulfate. Journal of Surfactants and Detergents 1, 321-328 (1998); and J. F. Scamehorn, “Precipitation of mixtures of anionic surfactants” in mixed Surfactant systems ACS Symposium Series (American Chemical Society: Washington D.C., 1992), pp. 392-401). Calcium chloride was used as a divalent counterion, and surface tension of the surfactant solution was measured with increasing concentration of CaCl2 from 1 mM to 450 mM. The value of calcium concentration above which the surface tension of the surfactant solution increased was recorded as the tolerance value of the surfactant towards calcium as indicated by the dashed red line in FIGS. 46A to 49B.
All experiments were carried out at a concentration equal to twice CMC of each surfactant, and the point of transition from a clear solution to a turbid one was also monitored. FIGS. 50A to 50E illustrate this effect for a linear alkylbenzene sulfonate (LAS) solution. Below the turbid point, the surfactant solution was clear as shown by FIGS. 50B and 50C which changed to a cloudy solution at calcium concentrations equal to and greater than the turbid point (FIG. 50D and FIG. 50E). The point of micelle stability was marked by an increase in the surface tension of the surfactant solution with an increase in calcium concentration. FIG. 50C corresponds to the micelle stability concentration and FIG. 50D corresponds to the turbid concentration. Micelle stability is defined as the calcium concentration at the increasing point of surface tension, and turbid concentration marks the onset of turbidity in the surfactant solution The solution transitions from clear to turbid as shown in FIGS. 50B to 50E

[3] = Particle size distribution of micelles via dynamic light scattering (DLS)
Experimental: Dynamic Light Scattering (DLS) has been used in the past for studying surfactant aggregates (N. Vlachy, M. Drechsler, J.-M. Verbavatz, D. Touraud, W. Kunz, Role of surfactant headgroup on the counterion specificity in the micelle-to-vesicle transition through salt addition. J. Colloid Interface Sci. 319, 542-548 (2008)). Micelle size distribution studies of the OFS-12 surfactant was performed using the Microtrac NANO-flex analyzer which employs a 180° scattering angle DLS technique. Two different surfactant concentration samples were prepared (5.0 and 10×CMC, 0.35 and 0.7 wt %) by dissolving the required amount of surfactant in deionized water and filtering the solution after surfactant dissolution using a 0.2μ micropore filter to remove any dust particles. Prior to each sample run, a blank solution (DI water) was used to set the baseline to zero. FIGS. 26A and 26B show the average particle size distribution plots for the surfactant solutions. The average values were computed based on five individual trials each lasting 120 sec.

Row | Compound | Krafft Point [1] | Micelle Stability [2] | Micelle stability conc. [2] | Turbid conc. ([2]; surfactant at twice CMC) | Krafft Point ([1]; sulfate) | Micelle stability conc. ([2]; surfactant at twice CMC) | Micelle Stability ([2]; surfactant at twice CMC, calcium concentration where surface tension starts to increase) [ppm Ca^2+] | Average micelle size (number distribution) ([3]; surfactant concentration 5.0×CMC in deionized water) [nm] | Average micelle size (number distribution) ([3]; surfactant concentration 10.0×CMC in deionized water) [nm]
1 | sodium lauryl ether sulfate [SLES, reference compound] | <0 °C | > 50,000 ppm Ca^2+ | >50,000 ppm of CaCl2 | >50,000 ppm of CaCl2 | – | – | – | – | –
2 | CCCCCCCCCCCCCCc1ccc(S(=O)(=O)[O-])o1.[Na+] [OFS-14, Sodium 5-Tetradecylfuran-2-Sulfonate] | 41.5 °C and 41.5 ± 0.9 °C | > 50,000 ppm Ca^2+ | >50,000 ppm of CaCl2 | 2,000 ppm of CaCl2 | – | – | – | – | –
3 | CCCCCCCCCCCCOS(=O)(=O)O [SLS, sodium dodecyl sulfate, reference compound] | – | – | – | 33 ppm of CaCl2 | 15 °C and 15.0 ± 1.2 °C | 33 ppm of CaCl2 | 33 | – | –
4 | CCCCCCCc1ccc(S(=O)(=O)[O-])o1.[Na+] [OFS-7, Sodium 5-Heptylfuran-2-Sulfonate] | < 0 °C | 120 ppm Ca^2+ | 110 ppm of CaCl2 | 230 ppm of CaCl2 | – | – | – | – | –
5 | CCCCCCCCCCCCc1ccc(S(=O)(=O)[O-])o1.[Na+] [OFS-12, Sodium 5-Dodecylfuran-2-Sulfonate] | 30 °C and 30.0 ± 1.0 °C | > 50,000 ppm Ca^2+ | >50,000 ppm of CaCl2 | 10,000 ppm of CaCl2 | – | – | – | 7.41 | 6.29
